Measured values reported in ChEMBL document CHEMBL3769352, “Design, synthesis, and testing of an isoquinoline-3-carboxylic-based novel anti-tumor lead” (Bioorg Med Chem Lett, 2015).

Legend:
[1] = Cytotoxicity against human Bel7402 cells after 48 hrs by MTT assay; assay type: functional, cell-based; settings: Bel-7402, 48 h
CCRF S-180 [2] = assay: Antitumor activity against mouse S180 cells allografted in Swiss mouse assessed as tumour weight at 2 umol/kg, sc administered every day for 12 days measured on fourteenth day (reference value: 1.662 +/- 0.355 g); assay type: functional
HeLa = assay: Cytotoxicity against human HeLa cells after 48 hrs by MTT assay; assay type: functional, cell-based
A2780 = assay: Cytotoxicity against human A2780 cells after 48 hrs by MTT assay; assay type: functional, cell-based; settings: A2780, 48 h
HepG2 = assay: Cytotoxicity against human HepG2 cells after 48 hrs by MTT assay; assay type: functional, cell-based; settings: HepG2, 48 h
MCF7 = assay: Cytotoxicity against human MCF7 cells after 48 hrs by MTT assay; assay type: functional, cell-based; settings: MCF7, 48 h
KB = assay: Cytotoxicity against human KB cells after 48 hrs by MTT assay; assay type: functional, cell-based
Mus musculus [3] = assay: Toxicity in Swiss mouse allografted with mouse S180 cells assessed as body weight at 2 umol/kg, sc administered every day for 12 days measured every day during compound administration; assay type: organism-based, CCRF S-180; settings: in vivo, 288 h
Mus musculus [4] = assay: Toxicity in Swiss mouse allografted with mouse S180 cells assessed as reduction in liver to body weight ratio at 2 umol/kg, sc administered every day for 12 days measured on fourteenth day; assay type: organism-based, CCRF S-180; settings: in vivo, 288 h
Mus musculus [5] = assay: Toxicity in Swiss mouse allografted with mouse S180 cells assessed as reduction in spleen weight index at 2 umol/kg, sc administered every day for 12 days measured on fourteenth day; assay type: organism-based, CCRF S-180; settings: in vivo, 288 h
Mus musculus [6] = assay: Toxicity in Swiss mouse allografted with mouse S180 cells assessed as effect on spleen to body weight ratio at 2 umol/kg, sc administered every day for 12 days measured on fourteenth day; assay type: organism-based, CCRF S-180; settings: in vivo, 288 h
Mus musculus [7] = assay: Toxicity in Swiss mouse allografted with mouse S180 cells assessed as effect on liver to body weight ratio at 2 umol/kg, sc administered every day for 12 days measured on fourteenth day; assay type: organism-based, CCRF S-180; settings: in vivo, 288 h
Mus musculus [8] = assay: Toxicity in Swiss mouse allografted with mouse S180 cells assessed as effect on brain to body weight ratio at 2 umol/kg, sc administered every day for 12 days measured on fourteenth day; assay type: organism-based, CCRF S-180; settings: in vivo, 288 h
Mus musculus [9] = assay: Toxicity in Swiss mouse allografted with mouse S180 cells assessed as effect on heart to body weight ratio at 2 umol/kg, sc administered every day for 12 days measured on fourteenth day; assay type: organism-based, CCRF S-180; settings: in vivo, 288 h
Mus musculus [10] = assay: Toxicity in Swiss mouse allografted with mouse S180 cells assessed as spleen weight index at 2 umol/kg, sc administered every day for 12 days measured on fourteenth day; assay type: organism-based, CCRF S-180; settings: in vivo, 288 h
Mus musculus [11] = assay: Toxicity in Swiss mouse allografted with mouse S180 cells assessed as effect on kidney to body weight ratio at 2 umol/kg, sc administered every day for 12 days measured on fourteenth day; assay type: organism-based, CCRF S-180; settings: in vivo, 288 h
CCRF S-180 [12] = assay: Antitumor activity against mouse S180 cells allografted in Swiss mouse assessed as tumour weight at 8 umol/kg, sc administered every day for 12 days measured on fourteenth day (reference value: 1.662 +/- 0.355 g); assay type: functional
Mus musculus [13] = assay: Toxicity in Swiss mouse allografted with mouse S180 cells assessed as effect on liver to body weight ratio at 8 umol/kg, sc administered every day for 12 days measured on fourteenth day; assay type: organism-based, CCRF S-180; settings: in vivo, 288 h
Mus musculus [14] = assay: Toxicity in Swiss mouse allografted with mouse S180 cells assessed as effect on body weight at 8 umol/kg, sc administered every day for 12 days measured every day during compound administration; assay type: organism-based, CCRF S-180; settings: in vivo, 288 h
Mus musculus [15] = assay: Toxicity in Swiss mouse allografted with mouse S180 cells assessed as effect on spleen to body weight ratio at 8 umol/kg, sc administered every day for 12 days measured on fourteenth day; assay type: organism-based, CCRF S-180; settings: in vivo, 288 h
Mus musculus [16] = assay: Toxicity in Swiss mouse allografted with mouse S180 cells assessed as spleen weight index at 8 umol/kg, sc administered every day for 12 days measured on fourteenth day; assay type: organism-based, CCRF S-180; settings: in vivo, 288 h
Mus musculus [17] = assay: Toxicity in Swiss mouse allografted with mouse S180 cells assessed as effect on brain to body weight ratio at 8 umol/kg, sc administered every day for 12 days measured on fourteenth day; assay type: organism-based, CCRF S-180; settings: in vivo, 288 h
Mus musculus [18] = assay: Toxicity in Swiss mouse allografted with mouse S180 cells assessed as effect on heart to body weight ratio at 8 umol/kg, sc administered every day for 12 days measured on fourteenth day; assay type: organism-based, CCRF S-180; settings: in vivo, 288 h
Mus musculus [19] = assay: Toxicity in Swiss mouse allografted with mouse S180 cells assessed as effect on kidney to body weight ratio at 8 umol/kg, sc administered every day for 12 days measured on fourteenth day; assay type: organism-based, CCRF S-180; settings: in vivo, 288 h

Row | Compound | IC50 [1] [µM] | Activity (CCRF S-180 [2]) [g] | IC50 (HeLa) [µM] | IC50 (A2780) [µM] | IC50 (HepG2) [µM] | IC50 (MCF7) [µM] | IC50 (KB) [µM] | Activity (Mus musculus [3]) [g] | further results
1 | COc1cccc2c1C(=O)c1c(O)c3c(c(O)c1C2=O)C[C@@](O)(C(=O)CO)C[C@@H]3O[C@H]1C[C@H](N)[C@H](O)[C@H](C)O1 [DOXORUBICIN] | 1.36 | 0.401 | 0.6 | 0.27 | 0.58 | 0.16 | 0.13 | 24 | Activity (Mus musculus [4]): Toxic; Activity (Mus musculus [5]): Toxic
2 | O=C(O)c1cc2ccccc2cn1 | > 100 |  | > 100 | > 100 | > 100 | > 100 | > 100 | 33 | Activity (Mus musculus [6]): Non-toxic; Activity (Mus musculus [7]): Non-toxic; Activity (Mus musculus [8]): Non-toxic; Activity (Mus musculus [9]): Non-toxic; Activity (Mus musculus [10]): Non-toxic; Activity (Mus musculus [11]): Non-toxic; Activity (CCRF S-180 [12]): 1.104 g
3 | O=C(NCCN(CCNC(=O)c1cc2ccccc2cn1)CCNC(=O)c1cc2ccccc2cn1)c1ccccc1 | 87.4 | 0.952 | 33.5 | 33.6 | 38.4 | 25 | 75.2 |  | Activity (Mus musculus [13]): Non-toxic; Activity (Mus musculus [14]): 33 g; Activity (Mus musculus [15]): Non-toxic; Activity (Mus musculus [16]): Non-toxic; Activity (Mus musculus [17]): Non-toxic; Activity (Mus musculus [18]): Non-toxic; Activity (Mus musculus [19]): Non-toxic
